# Experimental data published in BindingDB's records for doi:10.1021/jm050513m (The University of Texas At Houston, 2005).
# Square brackets hold non-standard residues; d marks the D form. Peptide text beside a SMILES is read from it. * marks the point of attachment. ξ: configuration not given here. pY = N[C@@H](Cc1ccc(OP(=O)(O)O)cc1)C(=O)O; NH(1R-phenylethyl) = C[C@@H](N*)c1ccccc1; Dip = N[C@H](C(=O)O)C(c1ccccc1)c1ccccc1; NMeThr(3ξ) = CN[C@H](C(=O)O)C(C)O; Hyp = O=C(O)[C@@H]1C[C@@H](O)CN1; NMeL = CN[C@@H](CC(C)C)C(=O)O; Thr(3ξ) = CC(O)[C@H](N)C(=O)O; αMeP = C[C@@]1(C(=O)O)CCCN1; Aze = O=C(O)[C@@H]1CCN1
# Target: Signal transducer and activator of transcription 3 (Mus musculus, UniProt P42227)
# Sequence (P42227 whole entry): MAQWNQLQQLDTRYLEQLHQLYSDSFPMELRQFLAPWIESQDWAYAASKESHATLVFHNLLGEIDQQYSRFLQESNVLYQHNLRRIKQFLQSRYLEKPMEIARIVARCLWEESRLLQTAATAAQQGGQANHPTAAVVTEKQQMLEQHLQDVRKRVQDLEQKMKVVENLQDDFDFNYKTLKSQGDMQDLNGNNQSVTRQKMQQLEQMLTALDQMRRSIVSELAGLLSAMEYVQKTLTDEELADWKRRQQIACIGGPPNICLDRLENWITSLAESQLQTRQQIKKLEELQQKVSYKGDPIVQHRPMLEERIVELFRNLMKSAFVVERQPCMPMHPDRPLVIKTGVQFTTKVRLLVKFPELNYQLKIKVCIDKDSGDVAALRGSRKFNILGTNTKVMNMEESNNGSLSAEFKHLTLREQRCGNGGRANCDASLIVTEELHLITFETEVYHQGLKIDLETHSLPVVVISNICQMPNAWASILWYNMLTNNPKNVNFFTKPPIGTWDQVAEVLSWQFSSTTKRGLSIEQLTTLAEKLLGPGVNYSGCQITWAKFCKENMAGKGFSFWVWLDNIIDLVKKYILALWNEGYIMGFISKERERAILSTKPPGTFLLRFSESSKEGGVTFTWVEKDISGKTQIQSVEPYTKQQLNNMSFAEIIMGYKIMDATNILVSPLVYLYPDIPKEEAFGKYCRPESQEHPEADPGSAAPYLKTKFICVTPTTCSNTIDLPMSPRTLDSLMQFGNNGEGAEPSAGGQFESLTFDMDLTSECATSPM
# Experiment: Fluorescence Polarization Assay
# Details: not given
# Experimental: Fluorescence polarization (FP) binding assay is utilizing the intrinsic property of the fluorescent probe, which will have low polarization value when free in solution. On binding to a target, the polarization of the probe will increase. Reaction mixtures of full length STAT3 alpha and the probe were placed in wells of a 96-well microtiter plate. The test peptide solution was added to each well. Fluorescence polarization was then read in a Tecan Polarian plate reader. The IC50 values were obtained from nonlinear regression analysis in the one-site competition mode. Peptides were assayed three times using three separate Stat3-probe preparations. IC50 values are reported as the mean of three IC50 values +/- the standard deviation.
row,SMILES,IC50
1,CC(=O)N[C@@H](Cc1ccc(OP(=O)(O)O)cc1)C(=O)N[C@@H](CC(C)C)C(=O)N1CCC[C@H]1C(=O)N[C@@H](CCC(N)=O)C(=O)N[C@H](C)c1ccccc1 [4-[(2S)-2-{[(2S)-1-[(2S)-2-{[(1S)-3-carbamoyl-1-{[(1R)-1-phenylethyl]carbamoyl}propyl]carbamoyl}pyrrolidin-1-yl]-4-methyl-1-oxopentan-2-yl]carbamoyl}-2-acetamidoethyl]phenoxyphosphonic acid] (Ac-[pY]LPQ-{NH(1R-phenylethyl)}),0.801 µM
2,"CC(=O)N[C@@H](Cc1ccc(OP(=O)(O)O)cc1)C(=O)N[C@@H](CC(C)C)C(=O)N1CCC[C@H]1C(=O)N[C@@H](CCC(N)=O)C(=O)N(C)[C@H](C(N)=O)C(C)O (stereo partly drawn) [4-[(2S)-2-{[(2S)-1-[(2S)-2-{[(1S)-3-carbamoyl-1-{[(1S,2S)-1-carbamoyl-2-hydroxypropyl](methyl)carbamoyl}propyl]carbamoyl}pyrrolidin-1-yl]-4-methyl-1-oxopentan-2-yl]carbamoyl}-2-acetamidoethyl]phenoxyphosphonic acid] (Ac-[pY]LPQ[NMeThr(3ξ)]-NH2)",1.22 µM

# Same assay, conditions: pH 7.5; 22 °C
row,SMILES,IC50
1,"CC(=O)N[C@@H](Cc1ccc(OP(=O)(O)O)cc1)C(=O)N[C@H](C(=O)N1CCC[C@H]1C(=O)N[C@@H](CCC(N)=O)C(=O)N[C@H](C(N)=O)C(C)O)C(C)C (stereo partly drawn) [4-[(2S)-2-{[(2S)-1-[(2S)-2-{[(1S)-3-carbamoyl-1-{[(1S,2S)-1-carbamoyl-2-hydroxypropyl]carbamoyl}propyl]carbamoyl}pyrrolidin-1-yl]-3-methyl-1-oxobutan-2-yl]carbamoyl}-2-acetamidoethyl]phenoxyphosphonic acid] (Ac-[pY]VPQ[Thr(3ξ)]-NH2)",1.54 µM
2,"CC(=O)N[C@@H](Cc1ccc(OP(=O)(O)O)cc1)C(=O)N[C@@H](CC(C)C)C(=O)N1CCC[C@@]1(C)C(=O)N[C@@H](CCC(N)=O)C(=O)N[C@H](C(N)=O)C(C)O (stereo partly drawn) [4-[(2S)-2-{[(2S)-1-[(2S)-2-{[(1S)-3-carbamoyl-1-{[(1S,2S)-1-carbamoyl-2-hydroxypropyl]carbamoyl}propyl]carbamoyl}-2-methylpyrrolidin-1-yl]-4-methyl-1-oxopentan-2-yl]carbamoyl}-2-acetamidoethyl]phenoxyphosphonic acid] (Ac-[pY]L[αMeP]Q[Thr(3ξ)]-NH2)",1.87 µM
3,"CC(=O)N[C@@H](Cc1ccc(OP(=O)(O)O)cc1)C(=O)N[C@@H](CC(C)C)C(=O)N1C[C@H](O)C[C@H]1C(=O)N[C@@H](CCC(N)=O)C(=O)N[C@H](C(N)=O)C(C)O (stereo partly drawn) [4-[(2S)-2-{[(2S)-1-[(2S,4R)-2-{[(1S)-3-carbamoyl-1-{[(1S,2S)-1-carbamoyl-2-hydroxypropyl]carbamoyl}propyl]carbamoyl}-4-hydroxypyrrolidin-1-yl]-4-methyl-1-oxopentan-2-yl]carbamoyl}-2-acetamidoethyl]phenoxyphosphonic acid] (Ac-[pY]L[Hyp]Q[Thr(3ξ)]-NH2)",0.484 µM
4,"CC(=O)N[C@@H](Cc1ccc(OP(=O)(O)O)cc1)C(=O)N[C@H](C(=O)N1CCC[C@H]1C(=O)N[C@@H](CCC(N)=O)C(=O)N[C@H](C(N)=O)C(C)O)C(c1ccccc1)c1ccccc1 (stereo partly drawn) [4-[(2S)-2-{[(2S)-1-[(2S)-2-{[(1S)-3-carbamoyl-1-{[(1S,2S)-1-carbamoyl-2-hydroxypropyl]carbamoyl}propyl]carbamoyl}pyrrolidin-1-yl]-1-oxo-3,3-diphenylpropan-2-yl]carbamoyl}-2-acetamidoethyl]phenoxyphosphonic acid] (Ac-[pY][Dip]PQ[Thr(3ξ)]-NH2)",> 100 µM
5,"CC(=O)N[C@@H](Cc1ccc(OP(=O)(O)O)cc1)C(=O)N(C)[C@@H](CC(C)C)C(=O)N1CCC[C@H]1C(=O)N[C@@H](CCC(N)=O)C(=O)N[C@H](C(N)=O)C(C)O (stereo partly drawn) [4-[(2S)-2-{[(2S)-1-[(2S)-2-{[(1S)-3-carbamoyl-1-{[(1S,2S)-1-carbamoyl-2-hydroxypropyl]carbamoyl}propyl]carbamoyl}pyrrolidin-1-yl]-4-methyl-1-oxopentan-2-yl](methyl)carbamoyl}-2-acetamidoethyl]phenoxyphosphonic acid] (Ac-[pY][NMeL]PQ[Thr(3ξ)]-NH2)",> 100 µM
6,"CC(=O)N[C@@H](Cc1ccc(OP(=O)(O)O)cc1)C(=O)N[C@@H](CC(C)C)C(=O)N1CC[C@H]1C(=O)N[C@@H](CCC(N)=O)C(=O)N[C@H](C(N)=O)C(C)O (stereo partly drawn) [4-[(2S)-2-{[(2S)-1-[(2S)-2-{[(1S)-3-carbamoyl-1-{[(1S,2S)-1-carbamoyl-2-hydroxypropyl]carbamoyl}propyl]carbamoyl}azetidin-1-yl]-4-methyl-1-oxopentan-2-yl]carbamoyl}-2-acetamidoethyl]phenoxyphosphonic acid] (Ac-[pY]L[Aze]Q[Thr(3ξ)]-NH2)",1.66 µM
